{"source": "ChEMBL document CHEMBL1687860", "about": "“Ring B aromatic norpimarane glucoside from a Xylaria sp” (J Nat Prod, 2011)", "key": {"[1]": {"tested_on": "KB", "assay": "Cytotoxicity against human KB cells by resazurin microplate assay", "assay_type": "functional, cell-based"}, "[2]": {"tested_on": "Vero", "assay": "Cytotoxicity against african green monkey Vero cells by green fluorescent protein microplate assay", "assay_type": "cell-based", "settings": "Chlorocebus sabaeus"}, "[3]": {"tested_on": "MCF7", "assay": "Cytotoxicity against human MCF7 cells by resazurin microplate assay", "assay_type": "functional, cell-based"}, "[4]": {"tested_on": "NCI-H187", "assay": "Cytotoxicity against human NCI-H187 by resazurin microplate assay", "assay_type": "functional, cell-based"}}, "note": "pIC50: −log10 of the molar value.", "data": [{"smiles": "C=C[C@@]1(C)CCc2c3c(c(O)c(O[C@H]4O[C@H](CO)[C@@H](O)[C@H](O)[C@H]4O)c2[C@H]1O)C(C)(C)CCC3", "note": "[XYLOPIMARANE]", "values": [{"measurement": "pIC50", "setting": "[1]", "value": 6.00}, {"measurement": "pIC50", "setting": "[2]", "value": 4.39}, {"measurement": "pIC50", "setting": "[3]", "value": 4.89}, {"measurement": "pIC50", "setting": "[4]", "value": 4.19}]}]}
